What all share (assay type): physicochemical
Data set [1] is described as follows: Example 1: degree of browning (chromaticity) on storage with added glycine. To be noted: 1.5% solution, room temperature. How it is done: (Effect of addition of ascorbic acid 2-glucoside arginine salt on change in degree of browning (chromaticity) of ascorbic acid by addition of amino acid) 100 ml of water was taken to dissolve 1.5% of ascorbic acid (ASA), and the solution was adjusted to pH 5.0 with a 1M of sodium hydroxide solution to obtain a test solution. Ascorbic acid 2-glucoside arginine salt (ASA2-G⋅Arg) is used as a test solution by dissolving 1.5% of the product of Production Example 1 in 100 ml of water. To each test solution, 0.2% glycine was added and dissolved to prepare a solution, and the solution was stored (at room temperature) for 20 months. This test solution was collected every designated month, the absorption spectrum (wavelength: 480 nm) was measured, the degree of browning (chromaticity) was evaluated, and the results are shown in FIG. 3.
At time 0, the initial state immediately after the preparation was visually observed. In the other designated months, a spectrophotometer (absorption spectrum: wavelength 480 nm) was used for the measurement. In the case of ascorbic acid, browning started to occur at 4 months, transparency was visually observed, and light brown color remarkably appeared at 14 months. Meanwhile, in the ASA2-G⋅Arg added system, the initial state was confirmed.

Data set [2] can be described thus: Example 2: degree of browning (chromaticity) on storage with added amino acid mixture. The conditions noted are these: 4% solution, room temperature. Here is the method:
4% of ascorbic acid (ASA) is dissolved in 200 ml of water, and the solution is adjusted to pH 5.0 with a 1M sodium hydroxide solution to obtain a test solution. Ascorbic acid 2-glucoside lysine salt (ASA2-G⋅Lys) (Production Example 2) is dissolved in the same manner by 4% to prepare a test solution. An amino acid mixture (histidine 1.5%, alanine 1.28, leucine 2.6%) was added to and dissolved in each test solution, and the solution was stored (at room temperature) for 20 months. Each test solution was collected every designated month, the absorption spectrum (wavelength: 480 nm) was measured, the degree of browning (chromaticity) was evaluated, and the results are shown in FIG. 4.

Data set [3] in a line: Test system: browning of ascorbic acid caused by addition of an amino acid. The conditions noted are these: 10 days after production. How it is done: For a reaction solution of ascorbic acid (1%) and amino acid (0.12%), the difference in degree of browning (chromaticity) based on the type of amino acid was examined for a 10 mM of phosphate citrate buffer solution pH 7.0. • Measurement wavelength: 480 nm, measurement time: 10 days after production

Structures can show the parent of a compound that is named as a salt.

As for `O=C1OC([C@@H](O)CO)C(O)=C1OC1O[C@H](CO)[C@@H](O)[C@H](O)[C@H]1O` (stereo partly shown) [ASA2-G⋅Arg, ascorbic acid 2-glucoside arginine salt], the “appearance (transparency), visual observation” value in data set [1] (0.2% glycine, 20 months) was “initial state”. Also, the “absorbance (Abs) in the absorption spectrum” value in data set [1] (480 nm, 0.2% glycine, 20 months) worked out at 0.01.
As to `O=C1OC([C@@H](O)CO)C(O)=C1OC1O[C@H](CO)[C@@H](O)[C@H](O)[C@H]1O` (stereo partly shown) [ASA2-G⋅Lys, ascorbic acid 2-glucoside lysine salt], the “appearance (color)” value in data set [2] (amino acid mixture, 20 months) is on record as “extremely light reddish brown color”. The “absorbance (Abs) of the absorption spectrum” value in data set [2] (480 nm, amino acid mixture, 20 months) was determined as 0.017.
In the case of `O=C1O[C@H]([C@@H](O)CO)C(O)=C1O` [ascorbic acid, (R)-3,4-dihydroxy-5-((S)-1,2-dihydroxyethyl) furan-2 (5H)-one], in data set [3] (ascorbic acid 1% + amino acid 0.12% (glycine, histidine, lysine or alanine), 10 mM phosphate citrate buffer pH 7.0, 480 nm), the “degree of browning (chromaticity)” value was “high”. Moreover, the degree of browning result in data set [3] (ascorbic acid 1% + glycine or histidine 0.12%, pH 7.0, 480 nm) is “remarkable”. In addition, in data set [1] (pH 5.0, 0.2% glycine), the “time at which browning started to occur” value is recorded as 4 months and the “time at which light brown color remarkably appeared” value worked out at 14 months. The “appearance (color)” value in data set [2] (amino acid mixture, 20 months) is on record as “reddish brown color”. The “time after which browning appeared” value in data set [2] (pH 5.0, amino acid mixture (histidine, alanine, leucine)) is on record as 4 months.
